Tests used:
patients with PH [1] = assay: Clinical Study 2 in patients with PH, 12 weeks, placebo controlled; type: in vivo, human
TNF-α production = assay: In vitro inhibition of cytokine (TNF-α) production following LPS-stimulation of human PBMC and human whole blood; type: cell-based; details: in vitro studies; more potent than thalidomide
Description: In a specific embodiment, the pharmacological properties of 3-(3,4-dimethoxy-phenyl)-3-(1-oxo-1,3-dihydro-isoindol-2-yl)-propionamide are characterized in in vitro studies. Studies examine the effects of the compound on the production of various cytokines. Inhibition of TNF-α production following LPS-stimulation of human PBMC and human whole blood by the compound is investigated in vitro. […] The pharmacological effects of 3-(3,4-dimethoxy-phenyl)-3-(1-oxo-1,3-dihydro-isoindol-2-yl)-propionamide may derive from its action as an inhibitor of the generation of inflammatory cytokines.

patients with PH [2] = assay: Expanded clinical study in 213 PH patients, WHO functional class III or IV, 16 weeks; type: in vivo, human
Method: On the basis of the results of the above study 2, the clinical study is expanded with additional 213 PH patients for at least 16 weeks. The study is conducted with patients with PH, WHO functional class III or IV. Two hundred thirteen patients are randomized to receive either 400 mg bid or 800 mg bid of 3-(3,4-dimethoxy-phenyl)-3-(1-oxo-1,3-dihydro-isoindol-2-yl)-propionamide or placebo in a 1:1:1 ratio. The primary endpoint, a 6-minute walk distance, is evaluated at 16 weeks. The treated patients walk 36.4 meters further at 16 weeks compared to a 7.8 meter reduction in walk distance in the placebo group, for a treatment effect of 44.2 meters. Clinical worsening, defined by death, premature withdrawal from study, hospitalization for worsening of PH or institution of epoprostenol, occur in 37% of placebo-treated patients, compared with 11% of the patients treated with the compound of the invention.

[3] = 12 weeks, compared with placebo patients
[4] = after 12 weeks of treatment, compared with placebo

Question: How did the dyspnea score (patients with PH [1]; [3]) turn out when `COc1ccc(C(CC(N)=O)N2Cc3ccccc3C2=O)cc1OC` (centres unmarked) [3-(3,4-Dimethoxy-phenyl)-3-(1-oxo-1,3-dihydro-isoindol-2-yl)-propionamide] was run?
Answer: Its dyspnea score is “improvements”.

Question: What about the functional class (patients with PH [1]; [3]) of the same compound?
Answer: Its functional class is “improvements”.

Question: What about the cardiac output (patients with PH [1]; [4]) of the same compound?
Answer: Its cardiac output is “increase”.

Question: What about the pulmonary arterial pressure (patients with PH [1]; [4]) of the same compound?
Answer: Its pulmonary arterial pressure is “decreases”.

Question: What about the pulmonary vascular resistance (patients with PH [1]; [4]) of the same compound?
Answer: Its pulmonary vascular resistance is “decreases”.

Question: And the “6-minute walk distance, average walked farther” value (patients with PH [1]; after 12 weeks, 400 mg for four weeks followed by 800 mg for eight weeks, NYHA functional class III)?
Answer: The value was 70 meters.

Question: What about the “pharmacological activity profile, potency relative to thalidomide” value (TNF-α production) of the same compound?
Answer: Its value is “five to fifty”.

Question: And the “6-minute walk distance, walked further” value (patients with PH [2]; at 16 weeks, 400 mg bid or 800 mg bid)?
Answer: The value was 36.4 meters.

Question: And the “6-minute walk distance, treatment effect versus placebo” value (patients with PH [2]; at 16 weeks, 400 mg bid or 800 mg bid, placebo 7.8 meter reduction)?
Answer: Its value is 44.2 meters.

Question: What about the “clinical worsening (death, premature withdrawal, hospitalization for worsening of PH or institution of epoprostenol), share of patients” value (patients with PH [2]; at least 16 weeks, placebo 37%) of the same compound?
Answer: The value was 11%.

Question: What about the functional class (patients with PH [2]; treated versus placebo patients) of the same compound?
Answer: The functional class was “improved significantly more”.

— patent US20050239867A1, “Methods of using and compositions comprising PDE4 modulators for the treatment and management of pulmonary hypertension” (priority 2004, published 2005)
